Data published in publication PMC5218480 (PLoS ONE, 2017).

Tested on: MV-4-11 cells
Test: Gene expression microarray analysis (Affymetrix PrimeView) and GSEA
Type: cell-based, human
Set-up: RFU PODN (11730768_x_at) / Fold change /veh PODN (11730768_x_at) / RFU LINC00158 (11744669_a_at) / Fold change /veh LINC00158 (11744669_a_at) / RFU DUSP10 (11751237_a_at) / Fold change /veh DUSP10 (11751237_a_at) / RFU ID3 (11757404_x_at) / Fold change /veh ID3 (11757404_x_at) / RFU PLEKHG5 (11737974_s_at) / Fold change /veh PLEKHG5 (11737974_s_at) / RFU LRRC4B (11730491_at) / Fold change /veh LRRC4B (11730491_at) / RFU GIMAP4 (11747438_a_at) / Fold change /veh GIMAP4 (11747438_a_at) / RFU KRT8 (11758183_x_at) / Fold change /veh KRT8 (11758183_x_at) / RFU CNN1 (11734310_a_at) / Fold change /veh CNN1 (11734310_a_at) / RFU VPS37D (11726825_at) / Fold change /veh VPS37D (11726825_at) / RFU C10orf10 (11716522_x_at) / Fold change /veh C10orf10 (11716522_x_at) / RFU KIR2DL2 /// KIR2DL4 /// KIR2DL5A /// KIR2DL5B /// KIR2DS1 /// KIR2DS2 /// KIR2DS3 /// KIR2DS4 /// KIR3DL3 /// KIR3DL3 /// KIR3DS1 (11738374_at) / Fold change /veh KIR2DL2 /// KIR2DL4 /// KIR2DL5A /// KIR2DL5B /// KIR2DS1 /// KIR2DS2 /// KIR2DS3 /// KIR2DS4 /// KIR3DL3 /// KIR3DL3 /// KIR3DS1 (11738374_at) / RFU C1QL1 (11718748_at) / Fold change /veh C1QL1 (11718748_at) / RFU TMPRSS4 (11747572_a_at) / Fold change /veh TMPRSS4 (11747572_a_at) / RFU HAMP (11756126_x_at) / Fold change /veh HAMP (11756126_x_at) / RFU RNFT2 (11725882_a_at) / Fold change /veh RNFT2 (11725882_a_at) / RFU NR4A2 (11747474_a_at) / Fold change /veh NR4A2 (11747474_a_at) / RFU ABCC12 (11746883_a_at) / Fold change /veh ABCC12 (11746883_a_at) / RFU TMEM136 (11760407_x_at) / Fold change /veh TMEM136 (11760407_x_at) / RFU CLDN22 /// WWC2 (11732394_at) / Fold change /veh CLDN22 /// WWC2 (11732394_at) / RFU HLA-DPB1 (11760878_x_at) / Fold change /veh HLA-DPB1 (11760878_x_at) / RFU SPINT1 (11716480_a_at) / Fold change /veh SPINT1 (11716480_a_at) / RFU GAP43 (11754022_s_at) / Fold change /veh GAP43 (11754022_s_at) / RFU A4GNT (11735810_at) / Fold change /veh A4GNT (11735810_at) / RFU PRB3 (11715151_x_at) / Fold change /veh PRB3 (11715151_x_at) / RFU TUBB4B (11761932_at) / Fold change /veh TUBB4B (11761932_at) / RFU CAPN14 (11732068_a_at) / Fold change /veh CAPN14 (11732068_a_at) / RFU TMCC2 (11721928_a_at) / Fold change /veh TMCC2 (11721928_a_at) / RFU IRGQ (11745062_a_at) / Fold change /veh IRGQ (11745062_a_at) / RFU FAM174B (11720279_a_at) / Fold change /veh FAM174B (11720279_a_at) / RFU TMPRSS4 (11748680_a_at) / Fold change /veh TMPRSS4 (11748680_a_at) / RFU FAM212B (11763350_a_at) / Fold change /veh FAM212B (11763350_a_at) / RFU PLEKHG5 (11743358_a_at) / Fold change /veh PLEKHG5 (11743358_a_at) / RFU ZSCAN30 (11745921_a_at) / Fold change /veh ZSCAN30 (11745921_a_at) / RFU CMKLR1 (11741424_a_at) / Fold change /veh CMKLR1 (11741424_a_at) / RFU LOC101060620 /// MAPK8IP1 (11723275_at) / Fold change /veh LOC101060620 /// MAPK8IP1 (11723275_at) / RFU SPTSSB (11747773_x_at) / Fold change /veh SPTSSB (11747773_x_at) / RFU PRSS12 (11739890_at) / Fold change /veh PRSS12 (11739890_at) / RFU BIN1 (11741810_x_at) / Fold change /veh BIN1 (11741810_x_at) / RFU WNT11 (11732464_a_at) / Fold change /veh WNT11 (11732464_a_at) / RFU C10orf10 (11716521_a_at) / Fold change /veh C10orf10 (11716521_a_at) / RFU C5orf56 (11738089_at) / Fold change /veh C5orf56 (11738089_at) / RFU CYB561 (11721691_x_at) / Fold change /veh CYB561 (11721691_x_at) / RFU ANKRD19P (11752326_a_at) / Fold change /veh ANKRD19P (11752326_a_at) / RFU OR2T12 /// OR2T33 /// OR2T8 (11738714_s_at) / Fold change /veh OR2T12 /// OR2T33 /// OR2T8 (11738714_s_at) / RFU VCAN (11748164_a_at) / Fold change /veh VCAN (11748164_a_at) / RFU JSRP1 (11732532_at) / Fold change /veh JSRP1 (11732532_at) / RFU KRTAP10-11 (11738290_x_at) / Fold change /veh KRTAP10-11 (11738290_x_at) / RFU MYO3A (11730013_a_at) / Fold change /veh MYO3A (11730013_a_at) / RFU EBF3 (11725865_a_at) / Fold change /veh EBF3 (11725865_a_at) / RFU CAMK2N1 (11719241_x_at) / Fold change /veh CAMK2N1 (11719241_x_at) / RFU C5orf56 (11738088_a_at) / Fold change /veh C5orf56 (11738088_a_at) / RFU OLFML3 (11715873_a_at) / Fold change /veh OLFML3 (11715873_a_at) / RFU LOC100653217 /// NTM (11731650_a_at) / Fold change /veh LOC100653217 /// NTM (11731650_a_at) / RFU MAPK11 (11762145_a_at) / Fold change /veh MAPK11 (11762145_a_at) / RFU FIZ1 (11724087_x_at) / Fold change /veh FIZ1 (11724087_x_at) / RFU OASL (11726364_x_at) / Fold change /veh OASL (11726364_x_at) / RFU SOX15 (11748057_x_at) / Fold change /veh SOX15 (11748057_x_at) / RFU CD79A (11719716_a_at) / Fold change /veh CD79A (11719716_a_at) / RFU HIST1H1D (11736915_at) / Fold change /veh HIST1H1D (11736915_at) / RFU CASKIN2 (11723855_a_at) / Fold change /veh CASKIN2 (11723855_a_at) / RFU LOC730098 (11760151_x_at) / Fold change /veh LOC730098 (11760151_x_at) / RFU OR4N2 (11742367_at) / Fold change /veh OR4N2 (11742367_at) / RFU PRRT2 (11749266_a_at) / Fold change /veh PRRT2 (11749266_a_at) / RFU SNX32 (11753110_a_at) / Fold change /veh SNX32 (11753110_a_at) / RFU CDHR5 (11726645_a_at) / Fold change /veh CDHR5 (11726645_a_at) / RFU RCAN1 (11760418_a_at) / Fold change /veh RCAN1 (11760418_a_at) / RFU FAM167A (11723789_a_at) / Fold change /veh FAM167A (11723789_a_at) / RFU FAM26E (11764081_at) / Fold change /veh FAM26E (11764081_at) / RFU ISYNA1 (11749810_s_at) / Fold change /veh ISYNA1 (11749810_s_at) / RFU ACY1 (11761880_at) / Fold change /veh ACY1 (11761880_at) / RFU 11764098_at / Fold change /veh 11764098_at / RFU SAMD14 (11745864_x_at) / Fold change /veh SAMD14 (11745864_x_at) / RFU NPB (11741838_a_at) / Fold change /veh NPB (11741838_a_at) / RFU TMPRSS6 (11731388_a_at) / Fold change /veh TMPRSS6 (11731388_a_at) / RFU KRTAP10-2 (11738614_at) / Fold change /veh KRTAP10-2 (11738614_at) / RFU ARHGAP8 /// PRR5-ARHGAP8 (11727945_x_at) / Fold change /veh ARHGAP8 /// PRR5-ARHGAP8 (11727945_x_at) / RFU KRTAP5-7 /// NADSYN1 (11734609_at) / Fold change /veh KRTAP5-7 /// NADSYN1 (11734609_at) / RFU RASL12 (11751679_a_at) / Fold change /veh RASL12 (11751679_a_at) / RFU CDKN2B (11736163_a_at) / Fold change /veh CDKN2B (11736163_a_at) / RFU PRF1 (11729649_at) / Fold change /veh PRF1 (11729649_at) / RFU, ZNF638 /// ZNF638-IT1 / Fold change vs veh, ZNF638 /// ZNF638-IT1 / RFU, PANK3 / Fold change vs veh, PANK3 / RFU, SH3YL1 / Fold change vs veh, SH3YL1 / RFU, ZEB2 / Fold change vs veh, ZEB2 / RFU, NRIP1 / Fold change vs veh, NRIP1 / RFU, PTTG1IP / Fold change vs veh, PTTG1IP / RFU, CAPN2 / Fold change vs veh, CAPN2 / RFU, MED14 / Fold change vs veh, MED14 / RFU, SNORA58 / Fold change vs veh, SNORA58 / RFU, C1orf63 / Fold change vs veh, C1orf63 / RFU, LRRFIP1 / Fold change vs veh, LRRFIP1 / RFU, NDUFAF7 / Fold change vs veh, NDUFAF7 / RFU, SLC12A2 / Fold change vs veh, SLC12A2 / RFU, IBTK / Fold change vs veh, IBTK / RFU, ESF1 / Fold change vs veh, ESF1 / Fold change vs veh, TMEM50B / RFU, TAOK1 / Fold change vs veh, TAOK1 / RFU, ACBD3 / Fold change vs veh, ACBD3 / RFU, TMA16 / Fold change vs veh, TMA16 / RFU, RWDD3 / Fold change vs veh, RWDD3 / RFU, BCAT1 / Fold change vs veh, BCAT1 / RFU, EDEM3 / Fold change vs veh, EDEM3 / RFU, TMEM33 / Fold change vs veh, TMEM33 / RFU, WDR75 / Fold change vs veh, WDR75 / RFU, AHCTF1 / Fold change vs veh, AHCTF1 / RFU, TFRC / Fold change vs veh, TFRC / RFU, ZDHHC17 / Fold change vs veh, ZDHHC17 / RFU, NOM1 / Fold change vs veh, NOM1 / RFU, ARL8B / Fold change vs veh, ARL8B / RFU, ZBTB11 / Fold change vs veh, ZBTB11 / RFU, TAMM41 / Fold change vs veh, TAMM41 / RFU, KIAA1704 /// LOC100996395 / Fold change vs veh, KIAA1704 /// LOC100996395 / RFU, ING1 / Fold change vs veh, ING1 / RFU, TRMT61B / Fold change vs veh, TRMT61B / RFU, FUBP3 / Fold change vs veh, FUBP3 / RFU, TP53 / Fold change vs veh, TP53 / RFU, TNKS2 / Fold change vs veh, TNKS2 / RFU, ZFP14 / Fold change vs veh, ZFP14 / RFU, ACTR2 / Fold change vs veh, ACTR2 / RFU, PPP3R1 / Fold change vs veh, PPP3R1 / RFU, PIK3R1 / Fold change vs veh, PIK3R1 / RFU, HNRNPA1 / Fold change vs veh, HNRNPA1 / RFU, RNF170 / Fold change vs veh, RNF170 / RFU, ZNF28 / Fold change vs veh, ZNF28 / RFU, RNGTT / Fold change vs veh, RNGTT / RFU, OGT / Fold change vs veh, OGT / RFU, BRD1 / Fold change vs veh, BRD1 / RFU, MARS / Fold change vs veh, MARS / RFU, ZNF655 / Fold change vs veh, ZNF655 / RFU, FAHD1 / Fold change vs veh, FAHD1 / RFU, BDP1 / Fold change vs veh, BDP1 / RFU, LRRCC1 / Fold change vs veh, LRRCC1 / RFU, ARID1A / Fold change vs veh, ARID1A / RFU, ZNF146 / Fold change vs veh, ZNF146 / RFU, ZNF330 / Fold change vs veh, ZNF330 / RFU, GPN3 / Fold change vs veh, GPN3 / RFU, C9orf123 / Fold change vs veh, C9orf123 / RFU, N4BP2L2 / Fold change vs veh, N4BP2L2 / RFU, ARFIP1 / Fold change vs veh, ARFIP1 / RFU, FAM179B / Fold change vs veh, FAM179B / RFU, BCL10 / Fold change vs veh, BCL10 / RFU, UHRF1BP1L / Fold change vs veh, UHRF1BP1L / RFU, BET1 / Fold change vs veh, BET1 / RFU, CNOT2 / Fold change vs veh, CNOT2 / RFU, ZNF268 / Fold change vs veh, ZNF268 / Fold change vs veh, ZNF507 / RFU, DGCR2 / Fold change vs veh, DGCR2 / RFU, WDSUB1 / Fold change vs veh, WDSUB1 / Fold change vs veh, HSP90B1 /// MIR3652 / RFU, ADSS / Fold change vs veh, ADSS / RFU, GK / Fold change vs veh, GK / RFU, ZNF148 / Fold change vs veh, ZNF148 / RFU, TAF9 / Fold change vs veh, TAF9 / RFU, SLC1A5 / Fold change vs veh, SLC1A5 / RFU, SLMO2 / Fold change vs veh, SLMO2 / RFU, ABCC4 / Fold change vs veh, ABCC4 / RFU, LOC101060439 /// RAP1B / Fold change vs veh, LOC101060439 /// RAP1B / RFU, RFX7 / Fold change vs veh, RFX7 / RFU, GTPBP10 / Fold change vs veh, GTPBP10 / RFU, CNEP1R1 / Fold change vs veh, CNEP1R1 / RFU, BIVM-ERCC5 /// ERCC5 / Fold change vs veh, BIVM-ERCC5 /// ERCC5 / RFU, ILF3 / Fold change vs veh, ILF3 / RFU 11762660_at / Fold change /veh 11762660_at / RFU VCAN (11757783_s_at) / Fold change /veh VCAN (11757783_s_at) / RFU DDX43 (11728927_at) / Fold change /veh DDX43 (11728927_at) / RFU KRT8 (11758188_x_at) / Fold change /veh KRT8 (11758188_x_at) / RFU NKD1 (11759106_at) / Fold change /veh NKD1 (11759106_at) / RFU SRD5A1 (11742802_a_at) / Fold change /veh SRD5A1 (11742802_a_at) / RFU TPSAB1 /// TPSB2 (11721975_s_at) / Fold change /veh TPSAB1 /// TPSB2 (11721975_s_at) / RFU GSTM3 (11746129_a_at) / Fold change /veh GSTM3 (11746129_a_at) / RFU IL23R (11737362_x_at) / Fold change /veh IL23R (11737362_x_at) / RFU TMEM51 (11727254_a_at) / Fold change /veh TMEM51 (11727254_a_at) / RFU PIWIL2 (11732686_x_at) / Fold change /veh PIWIL2 (11732686_x_at) / RFU ORM1 (11744905_x_at) / Fold change /veh ORM1 (11744905_x_at) / RFU CCDC152 (11743942_at) / Fold change /veh CCDC152 (11743942_at) / RFU ECM1 (11717891_a_at) / Fold change /veh ECM1 (11717891_a_at) / RFU IL23R (11748794_a_at) / Fold change /veh IL23R (11748794_a_at) / RFU TNFAIP8L3 (11732012_x_at) / Fold change /veh TNFAIP8L3 (11732012_x_at) / RFU MBOAT4 (11741988_at) / Fold change /veh MBOAT4 (11741988_at) / RFU 11764193_at / Fold change /veh 11764193_at / RFU TMEM53 (11763286_at) / Fold change /veh TMEM53 (11763286_at) / RFU MAGEB2 (11727129_at) / Fold change /veh MAGEB2 (11727129_at) / RFU TMEM200A (11744735_a_at) / Fold change /veh TMEM200A (11744735_a_at) / RFU CCDC152 (11751479_a_at) / Fold change /veh CCDC152 (11751479_a_at) / RFU FAM211A (11726209_a_at) / Fold change /veh FAM211A (11726209_a_at) / RFU RGS16 (11746705_a_at) / Fold change /veh RGS16 (11746705_a_at) / RFU VCAN (11755009_s_at) / Fold change /veh VCAN (11755009_s_at) / RFU RHOB (11743442_s_at) / Fold change /veh RHOB (11743442_s_at) / RFU RGS16 (11720943_a_at) / Fold change /veh RGS16 (11720943_a_at) / RFU RGS16 (11720944_at) / Fold change /veh RGS16 (11720944_at) / RFU, VPS4B / Fold change vs veh, VPS4B / RFU, CREB1 / Fold change vs veh, CREB1 / RFU, DNAJC13 / Fold change vs veh, DNAJC13 / RFU, GNAQ / Fold change vs veh, GNAQ / RFU, CDK5R1 / Fold change vs veh, CDK5R1 / RFU, ZRANB3 / Fold change vs veh, ZRANB3 / RFU, CUL4A / Fold change vs veh, CUL4A / RFU, CCNY / Fold change vs veh, CCNY / RFU, UFL1 / Fold change vs veh, UFL1 / RFU, COG3 / Fold change vs veh, COG3 / RFU, DIAPH2 / Fold change vs veh, DIAPH2 / RFU, SKA2 / Fold change vs veh, SKA2 / RFU, AFF3 / Fold change vs veh, AFF3 / RFU, LMF1 / Fold change vs veh, LMF1 / RFU, IPO11 / Fold change vs veh, IPO11 / RFU, DFFB / Fold change vs veh, DFFB / RFU, FOXP1 / Fold change vs veh, FOXP1 / RFU, CARD8 / Fold change vs veh, CARD8 / RFU, STRN3 / Fold change vs veh, STRN3 / RFU, ADK / Fold change vs veh, ADK / RFU, RASSF2 / Fold change vs veh, RASSF2 / RFU, WIPF1 / Fold change vs veh, WIPF1 / RFU, LARP1B / Fold change vs veh, LARP1B / RFU, RASA1 / Fold change vs veh, RASA1 / RFU, RB1 / Fold change vs veh, RB1 / RFU, PPFIA1 / Fold change vs veh, PPFIA1 / RFU, MAT2A / Fold change vs veh, MAT2A / RFU, CCT5 / Fold change vs veh, CCT5 / RFU, WDR92 / Fold change vs veh, WDR92 / RFU, CUX1 / Fold change vs veh, CUX1 / RFU, TTC7A / Fold change vs veh, TTC7A / RFU, TMEM135 / Fold change vs veh, TMEM135 / RFU, DEPTOR / Fold change vs veh, DEPTOR / RFU, CPM / Fold change vs veh, CPM / RFU, DNAJB6 / Fold change vs veh, DNAJB6 / RFU, CACNA2D3 / Fold change vs veh, CACNA2D3 / RFU, DTX4 / Fold change vs veh, DTX4 / RFU, TFCP2 / Fold change vs veh, TFCP2 / RFU, GMCL1 /// GMCL1P1 / Fold change vs veh, GMCL1 /// GMCL1P1 / RFU, AEBP2 / Fold change vs veh, AEBP2 / RFU, SNHG1 /// SNORD22 /// SNORD25 /// SNORD26 /// SNORD27 /// SNORD28 /// SNORD29 /// SNORD31 / Fold change vs veh, SNHG1 /// SNORD22 /// SNORD25 /// SNORD26 /// SNORD27 /// SNORD28 /// SNORD29 /// SNORD31 / Fold change (Aza/veh), C12orf56 (ProbeSet 11735607_a_at) / Fold change (ACY-1035/veh), C12orf56 (ProbeSet 11735607_a_at) / Fold change (Aza/veh), FGFR1OP (ProbeSet 11751329_s_at) / Fold change (ACY-1035/veh), FGFR1OP (ProbeSet 11751329_s_at) / Fold change (Aza/veh), VPS36 (ProbeSet 11739960_a_at) / Fold change (ACY-1035/veh), VPS36 (ProbeSet 11739960_a_at) / RFU SYPL1 (11715823_x_at) / Fold change /veh SYPL1 (11715823_x_at) / RFU IGFBP7 (11715501_s_at) / Fold change /veh IGFBP7 (11715501_s_at) / RFU REEP3 (11722064_at) / Fold change /veh REEP3 (11722064_at) / RFU IGLL1 (11728026_x_at) / Fold change /veh IGLL1 (11728026_x_at): dose or concentration left out as unconfirmed
Conditions: ProbeSet 11721521_at; LIST B

Structure (SMILES): Nc1ncn([C@@H]2O[C@H](CO)[C@@H](O)[C@H]2O)c(=O)n1 [azacitidine]
- Fold change vs veh, ZDHHC17: 0.88
